Results reported in patent US11945822B2, “Pyrazolo-triazine and/or pyrazolo-pxrimidine derivatives as selective inhibitor of cyclin dependent kinase” (QURIENT CO., LTD., priority 2018, dated 2024).

Key:
Experiment in all cases: In vitro IC50 profile for CDKs family kinase (33PanQinase radiometric assay)
Type in all cases: biochemical
Conditions in all cases: CDK7 selectivity profile in CDKs family
[1] = biological target: T1, CDK1/CycB1 (Homo sapiens, UniProt P06493)
T1 construct: purchased ProQinase GmbH
T1 sequence (P06493 whole entry): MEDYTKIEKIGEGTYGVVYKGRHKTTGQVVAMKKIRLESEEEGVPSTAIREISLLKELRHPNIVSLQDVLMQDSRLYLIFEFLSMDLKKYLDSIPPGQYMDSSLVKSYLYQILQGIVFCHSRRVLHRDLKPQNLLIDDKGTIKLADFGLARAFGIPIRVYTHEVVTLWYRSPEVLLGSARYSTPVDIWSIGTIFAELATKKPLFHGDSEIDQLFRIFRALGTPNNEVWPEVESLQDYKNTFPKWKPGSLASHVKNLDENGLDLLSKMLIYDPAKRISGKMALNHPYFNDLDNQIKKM
T1 sequence (P14635 whole entry partner): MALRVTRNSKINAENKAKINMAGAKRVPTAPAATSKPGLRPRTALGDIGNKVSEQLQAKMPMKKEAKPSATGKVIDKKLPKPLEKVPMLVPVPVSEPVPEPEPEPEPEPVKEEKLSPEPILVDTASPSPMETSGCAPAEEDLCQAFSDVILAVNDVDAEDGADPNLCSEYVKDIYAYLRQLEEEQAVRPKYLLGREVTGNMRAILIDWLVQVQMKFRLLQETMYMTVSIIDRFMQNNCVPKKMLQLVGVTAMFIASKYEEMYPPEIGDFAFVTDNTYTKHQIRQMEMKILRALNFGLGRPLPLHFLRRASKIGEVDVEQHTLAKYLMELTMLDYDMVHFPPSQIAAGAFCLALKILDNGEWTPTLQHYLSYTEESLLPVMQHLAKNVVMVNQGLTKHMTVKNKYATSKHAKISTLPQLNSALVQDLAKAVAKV
Protocol: (§1) In Vitro IC50 Profile for CDK7 Inhibitor Among 28 CDKs Family Kinases.
(§2) The IC50 profile of compounds were determined using 28 CDKs family protein kinases through ProQinase GmbH (Freiburg, Germany). All the protocol and materials had been provided by ProQinase GmbH. Briefly, in the process, 90 μl H2O were added to each well of a compound dilution plate. To minimize potential precipitation, the H2O was added to the plate only a few minutes before the transfer of the compound solutions into the assay plates. The plate was shaken thoroughly, resulting in a “compound dilution plate/10% DMSO”. The compound dilution plate(s) were discarded at the end of the working day. For the assays (see below), 5 μl solution from each well of the compound dilution plate were transferred into the assay plates. The final volume of the assay was 50 μl. All compounds were tested at 10 final assay concentrations in the range from 1×10^−05 M to 3×10^−10 M. The final DMSO concentration in the reaction cocktails was 1% in all cases. All protein kinases provided by ProQinase were expressed in Sf9 insect cells or in E. coli as recombinant GST-fusion proteins or His-tagged proteins, either as full-length or enzymatically active fragments. All kinases were produced from human cDNAs and purified by either GSH affinity chromatography or immobilized metal affinity chromatography. The purity of the protein kinases was examined by SDS-PAGE/Coomassie staining, the identity was checked by mass spectroscopy. Kinases from external vendors, Carna Biosciences Inc.; Invitrogen Corp.; and Millipore Corp., were expressed, purified and quality-controlled by virtue of the vendors readings. A radiometric protein kinase assay (^33PanQinase® Activity Assay) was used for measuring the kinase activity of the 28 protein kinases. All kinase assays were performed in 96-well FlashPlates™ from PerkinElmer (Boston, MA, USA) in a 50 μl reaction volume. The reaction cocktails were incubated at 30° C. for 60 minutes. The reaction was stopped with 50 μl of 2% (v/v) H3PO4, plates were aspirated and washed two times with 200 μl 0.9% (w/v) NaCl. Incorporation of ^33Pi was determined with a microplate scintillation counter (Microbeta, Wallac). All assays were performed with a BeckmanCoulter/SAGIAN™ Core System. As part of the data evaluation the low control value from a particular plate was subtracted from the high control value as well as from all 80 “compound values” of the corresponding plate. The residual activity (in %) for each well of a particular plate was calculated by using the following formula: Res. Activity (%)=100×[(cpm of compound−low control)/(high control−low control)]. Results are represented in table (table 10).

[2] = biological target: T2, CDK2/CycE1 (Homo sapiens, UniProt P24941)
T2 construct: purchased ProQinase GmbH
Protocol: as §1, §2

[3] = biological target: T3, CDK4/CycD2 (Homo sapiens, UniProt P11802)
T3 construct: purchased ProQinase GmbH
Protocol: as §1, §2

[4] = biological target: T4, CDK7/CycH/MAT1 (Homo sapiens, UniProt P50613)
T4 construct: purchased ProQinase GmbH
Protocol: as §1, §2

[5] = biological target: T5, CDK3/CycE1 (Homo sapiens, UniProt Q00526)
T5 construct: purchased ProQinase GmbH
Protocol: as §1, §2

[6] = biological target: T6, CDK1/CycE1 (Homo sapiens, UniProt P06493)
T6 construct: purchased ProQinase GmbH
Protocol: as §1, §2

[7] = biological target: T7, CDK5/p35NCK (Homo sapiens, UniProt Q00535)
T7 construct: purchased ProQinase GmbH
Protocol: as §1, §2

[8] = biological target: T8, CDK8/CycC (Homo sapiens, UniProt P49336)
T8 construct: purchased ProQinase GmbH
Protocol: as §1, §2

[9] = biological target: T9, CDK5/p25NCK (Homo sapiens, UniProt Q00535)
T9 construct: purchased ProQinase GmbH
Protocol: as §1, §2

[10] = biological target: T10, CDK2/CycD1 (Homo sapiens, UniProt P24941)
T10 construct: purchased ProQinase GmbH
Protocol: as §1, §2

[11] = biological target: T11, CDK20/CycT1 (Homo sapiens, UniProt Q8IZL9)
T11 construct: either as full-length or enzymatically active fragments; purchased ProQinase GmbH (Freiburg, Germany)
Protocol: as §1, §2

[12] = biological target: T12, CDK2/CycA2 (Homo sapiens, UniProt P24941)
T12 construct: purchased ProQinase GmbH
Protocol: as §1, §2

[13] = biological target: T13, CDK20/CycH (Homo sapiens, UniProt Q8IZL9)
T13 construct: either as full-length or enzymatically active fragments; purchased ProQinase GmbH (Freiburg, Germany)
Protocol: as §1, §2

[14] = biological target: T14, CDK12 wt/CycK (Homo sapiens, UniProt Q9NYV4)
T14 construct: purchased ProQinase GmbH
T14 sequence (Q9NYV4 whole entry): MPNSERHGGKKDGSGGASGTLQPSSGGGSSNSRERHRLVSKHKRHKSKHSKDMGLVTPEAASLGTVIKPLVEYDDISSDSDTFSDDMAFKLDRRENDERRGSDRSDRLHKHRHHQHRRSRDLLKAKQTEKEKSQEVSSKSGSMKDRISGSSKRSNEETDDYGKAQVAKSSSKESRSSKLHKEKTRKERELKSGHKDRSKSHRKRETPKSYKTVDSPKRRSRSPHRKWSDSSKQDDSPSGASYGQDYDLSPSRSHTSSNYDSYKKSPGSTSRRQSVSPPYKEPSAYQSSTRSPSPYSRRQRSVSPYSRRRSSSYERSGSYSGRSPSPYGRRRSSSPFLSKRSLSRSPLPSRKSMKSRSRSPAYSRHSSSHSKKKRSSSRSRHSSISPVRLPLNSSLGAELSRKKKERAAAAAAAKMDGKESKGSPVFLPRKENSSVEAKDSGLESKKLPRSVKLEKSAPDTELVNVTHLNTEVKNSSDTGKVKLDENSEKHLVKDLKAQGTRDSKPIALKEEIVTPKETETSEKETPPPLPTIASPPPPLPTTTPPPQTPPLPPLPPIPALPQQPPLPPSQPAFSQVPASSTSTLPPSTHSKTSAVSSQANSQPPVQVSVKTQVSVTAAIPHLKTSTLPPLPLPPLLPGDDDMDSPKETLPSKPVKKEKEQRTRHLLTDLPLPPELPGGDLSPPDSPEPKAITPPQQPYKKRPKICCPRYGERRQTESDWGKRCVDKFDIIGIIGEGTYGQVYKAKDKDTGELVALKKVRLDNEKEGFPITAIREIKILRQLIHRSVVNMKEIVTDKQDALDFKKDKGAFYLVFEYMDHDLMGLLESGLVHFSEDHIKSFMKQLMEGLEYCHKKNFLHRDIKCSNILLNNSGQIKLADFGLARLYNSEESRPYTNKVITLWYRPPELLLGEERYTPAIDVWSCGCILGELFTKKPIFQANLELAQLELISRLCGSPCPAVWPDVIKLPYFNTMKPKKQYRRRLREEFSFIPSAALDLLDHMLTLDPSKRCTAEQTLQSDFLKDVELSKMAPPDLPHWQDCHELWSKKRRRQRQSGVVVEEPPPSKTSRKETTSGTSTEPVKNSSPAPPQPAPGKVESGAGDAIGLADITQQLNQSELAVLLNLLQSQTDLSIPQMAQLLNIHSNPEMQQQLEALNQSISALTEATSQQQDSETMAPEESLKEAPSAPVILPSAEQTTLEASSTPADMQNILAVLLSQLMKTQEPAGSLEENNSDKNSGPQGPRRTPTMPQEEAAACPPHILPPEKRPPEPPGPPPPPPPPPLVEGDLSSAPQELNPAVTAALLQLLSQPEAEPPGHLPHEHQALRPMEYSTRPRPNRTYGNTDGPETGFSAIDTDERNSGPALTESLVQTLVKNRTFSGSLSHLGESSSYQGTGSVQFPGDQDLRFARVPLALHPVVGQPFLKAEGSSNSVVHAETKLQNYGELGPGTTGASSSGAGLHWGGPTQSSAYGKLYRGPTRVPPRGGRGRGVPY
T14 sequence (O75909 whole entry partner): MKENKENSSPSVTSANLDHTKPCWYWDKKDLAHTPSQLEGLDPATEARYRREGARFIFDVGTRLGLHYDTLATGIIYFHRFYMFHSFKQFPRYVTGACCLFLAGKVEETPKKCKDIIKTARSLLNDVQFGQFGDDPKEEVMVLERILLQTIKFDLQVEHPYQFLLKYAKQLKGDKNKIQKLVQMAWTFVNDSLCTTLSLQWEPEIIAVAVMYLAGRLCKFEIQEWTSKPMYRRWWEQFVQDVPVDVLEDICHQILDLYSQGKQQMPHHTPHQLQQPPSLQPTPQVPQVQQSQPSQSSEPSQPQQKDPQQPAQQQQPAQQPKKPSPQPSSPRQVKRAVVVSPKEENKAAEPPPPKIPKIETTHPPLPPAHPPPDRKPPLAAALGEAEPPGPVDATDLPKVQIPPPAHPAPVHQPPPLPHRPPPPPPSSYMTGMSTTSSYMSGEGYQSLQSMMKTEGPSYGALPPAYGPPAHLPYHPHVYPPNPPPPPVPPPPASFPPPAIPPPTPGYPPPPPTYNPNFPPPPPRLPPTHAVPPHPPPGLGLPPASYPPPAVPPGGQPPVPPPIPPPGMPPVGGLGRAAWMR
Protocol: as §1, §2

[15] = biological target: T15, CDK6/CycD3 (Homo sapiens, UniProt Q00534)
T15 construct: purchased ProQinase GmbH
Protocol: as §1, §2

[16] = biological target: T16, CDK9/CycT1 (Homo sapiens, UniProt P50750)
T16 construct: purchased ProQinase GmbH
T16 sequence (P50750 whole entry): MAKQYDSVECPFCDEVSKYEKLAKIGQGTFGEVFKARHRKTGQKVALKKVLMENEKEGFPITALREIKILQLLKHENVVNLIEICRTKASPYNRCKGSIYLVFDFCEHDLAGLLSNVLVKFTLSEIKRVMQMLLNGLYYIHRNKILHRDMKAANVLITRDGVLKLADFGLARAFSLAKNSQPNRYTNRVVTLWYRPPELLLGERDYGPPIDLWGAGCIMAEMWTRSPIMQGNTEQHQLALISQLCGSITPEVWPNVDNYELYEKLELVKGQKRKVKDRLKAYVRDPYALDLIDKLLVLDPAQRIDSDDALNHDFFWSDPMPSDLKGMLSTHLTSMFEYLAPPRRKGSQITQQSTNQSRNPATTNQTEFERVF
T16 sequence (O60563 whole entry partner): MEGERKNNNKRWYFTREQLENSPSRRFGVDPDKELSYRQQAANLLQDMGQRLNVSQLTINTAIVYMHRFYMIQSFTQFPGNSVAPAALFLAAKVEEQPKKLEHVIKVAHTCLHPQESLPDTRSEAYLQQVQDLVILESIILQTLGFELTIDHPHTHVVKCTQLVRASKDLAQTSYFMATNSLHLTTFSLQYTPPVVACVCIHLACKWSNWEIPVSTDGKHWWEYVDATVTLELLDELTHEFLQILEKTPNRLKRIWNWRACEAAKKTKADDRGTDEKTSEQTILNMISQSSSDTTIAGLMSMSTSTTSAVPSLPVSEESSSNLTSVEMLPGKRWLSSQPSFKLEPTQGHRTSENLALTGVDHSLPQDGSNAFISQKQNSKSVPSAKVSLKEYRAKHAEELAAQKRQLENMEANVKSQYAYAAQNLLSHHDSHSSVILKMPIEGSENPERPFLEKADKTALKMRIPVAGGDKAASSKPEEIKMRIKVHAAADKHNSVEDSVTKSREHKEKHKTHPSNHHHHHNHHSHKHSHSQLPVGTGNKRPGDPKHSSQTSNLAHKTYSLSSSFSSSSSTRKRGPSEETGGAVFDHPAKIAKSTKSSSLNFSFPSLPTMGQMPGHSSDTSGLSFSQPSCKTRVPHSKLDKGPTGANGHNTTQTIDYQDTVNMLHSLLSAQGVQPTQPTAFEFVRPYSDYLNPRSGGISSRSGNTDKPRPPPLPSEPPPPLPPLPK
Protocol: as §1, §2

[17] = biological target: T17, CDK3/CycC (Homo sapiens, UniProt Q00526)
T17 construct: purchased ProQinase GmbH
Protocol: as §1, §2

[18] = biological target: T18, CDK6/CycD2 (Homo sapiens, UniProt Q00534)
T18 construct: purchased ProQinase GmbH
Protocol: as §1, §2

[19] = biological target: T19, CDK19/CycC (Homo sapiens, UniProt Q9BWU1)
T19 construct: either as full-length or enzymatically active fragments; purchased ProQinase GmbH (Freiburg, Germany)
Protocol: as §1, §2

[20] = biological target: T20, CDK9/CycK (Homo sapiens, UniProt P50750)
T20 construct: purchased ProQinase GmbH
T20 sequence (P50750 whole entry): as the sequence (P50750 whole entry) above
T20 sequence (O75909 whole entry partner): as the sequence (O75909 whole entry partner) above
Protocol: as §1, §2

[21] = biological target: T21, CDK17/p35NCK (Homo sapiens, UniProt Q00537)
T21 construct: either as full-length or enzymatically active fragments; purchased ProQinase GmbH (Freiburg, Germany)
T21 sequence (Q00537 whole entry, the tested form may be a part): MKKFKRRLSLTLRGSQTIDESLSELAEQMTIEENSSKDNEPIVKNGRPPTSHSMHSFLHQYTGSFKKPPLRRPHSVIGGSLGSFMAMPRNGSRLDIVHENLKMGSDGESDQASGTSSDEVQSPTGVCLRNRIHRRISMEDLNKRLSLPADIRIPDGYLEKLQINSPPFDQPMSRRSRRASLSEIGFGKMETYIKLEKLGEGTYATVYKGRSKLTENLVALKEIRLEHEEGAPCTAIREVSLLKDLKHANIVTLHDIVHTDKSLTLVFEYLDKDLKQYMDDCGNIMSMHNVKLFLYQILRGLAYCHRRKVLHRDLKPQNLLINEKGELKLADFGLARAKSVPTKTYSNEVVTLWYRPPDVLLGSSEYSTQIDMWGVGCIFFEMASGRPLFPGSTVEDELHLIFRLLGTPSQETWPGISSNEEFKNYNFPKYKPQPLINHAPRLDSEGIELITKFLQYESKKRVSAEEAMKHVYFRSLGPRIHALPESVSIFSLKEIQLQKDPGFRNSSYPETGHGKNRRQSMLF
T21 sequence (Q15078 whole entry partner, the tested form may be a part): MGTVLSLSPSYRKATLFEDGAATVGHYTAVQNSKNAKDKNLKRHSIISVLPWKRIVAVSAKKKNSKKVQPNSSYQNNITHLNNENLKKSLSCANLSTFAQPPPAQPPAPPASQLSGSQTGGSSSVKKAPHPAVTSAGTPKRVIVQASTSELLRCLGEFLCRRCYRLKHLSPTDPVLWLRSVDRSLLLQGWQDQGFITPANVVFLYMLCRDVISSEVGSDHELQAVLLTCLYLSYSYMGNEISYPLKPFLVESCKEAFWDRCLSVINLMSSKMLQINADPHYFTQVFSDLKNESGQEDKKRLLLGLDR
Protocol: as §1, §2

[22] = biological target: T22, CDK4/CycD1 (Homo sapiens, UniProt P11802)
T22 construct: purchased ProQinase GmbH
Protocol: as §1, §2

[23] = biological target: T23, CDK4/CycD3 (Homo sapiens, UniProt P11802)
T23 construct: purchased ProQinase GmbH
Protocol: as §1, §2

[24] = biological target: T24, CDK12 R722C/CycK (Homo sapiens, UniProt Q9NYV4, R722C)
T24 construct: either as full-length or enzymatically active fragments; purchased ProQinase GmbH (Freiburg, Germany)
T24 sequence (Q9NYV4 whole entry R722C, the tested form may be a part): as the sequence (Q9NYV4 whole entry) above, with R722C counted along it
T24 sequence (O75909 whole entry partner, the tested form may be a part): as the sequence (O75909 whole entry partner) above
Protocol: as §1, §2

[25] = biological target: T25, CDK6/CycD1 (Homo sapiens, UniProt Q00534)
T25 construct: purchased ProQinase GmbH
Protocol: as §1, §2

CC(C)c1cnn2c(NCc3c(Cl)cccc3-n3ccc(C(C)(C)O)n3)nc(N3CCC(N)CC3)nc12 [Compound 210]
IC50 [1]: > 10 µM
IC50 [2]: 3.48 µM
IC50 [3]: > 10 µM
IC50 [4]: 0.015 µM
IC50 [5]: > 10 µM
IC50 [6]: > 10 µM
IC50 [7]: 4.79 µM
IC50 [8]: > 10 µM
IC50 [9]: > 10 µM
IC50 [10]: > 10 µM
IC50 [11]: > 10 µM
IC50 [12]: 3.61 µM
IC50 [13]: > 10 µM
IC50 [14]: > 10 µM
IC50 [15]: > 10 µM
IC50 [16]: > 10 µM
IC50 [17]: > 10 µM
IC50 [18]: > 10 µM
IC50 [19]: > 10 µM
IC50 [20]: > 10 µM
IC50 [21]: > 10 µM
IC50 [22]: > 10 µM
IC50 [23]: > 10 µM
IC50 [24]: > 10 µM
IC50 [25]: > 10 µM
